Legend:
[1] = system: HDAC; experiment: In vitro fluorescent histone deacetylase assay (Biomol HDAC fluorescent activity kit, HeLa cell nuclear extract); assay type: biochemical; details: 100 μM compound; HeLa cell nuclear extract as source of HDAC activity; 50 μM substrate, 10 min at room temperature
Experimental: Histone deacetylase (HDAC) activity assays were performed using the HDAC fluorescent activity assay/drug discovery kit (Biomol Research Laboratories, Plymouth Meeting, Pa.) essentially according to the manufacturer's instructions. The included HeLa cell nuclear extract, which contains a mosaic of HDAC enzymes and other nuclear factors, was used as the source of HDAC activity. The final substrate concentration in the assay mixture was 50 μM. The reaction was allowed to proceed for 10 min at room temperature before stopping the reaction. Test compounds were prepared as 20 mM stock solutions in DMSO (Molecular Biology grade, Sigma-Aldrich Co., St. Louis, Mo.) and stored at −70° C. Serial dilutions of test compounds were prepared in assay buffer immediately prior to testing. DMSO was determined in a separate trial to have no significant effect on the activity of this assay at concentrations up to 5%; the final DMSO concentration in the wells was no more than 2% and therefore DMSO effects were safely neglected. Assays were performed in white polystyrene 96-well half-area assay plates (Corning, Corning, N.Y.) and measured on a Wallace 1420 fluorescent plate reader (Wallac Oy, Turku, Finland) with an excitation wavelength of 355 nm, an emission wavelength of 460 nm, and a 1 sec signal averaging time.

[2] = system: HCT116 cells; experiment: Whole cell cytotoxicity assay: Sulforhodamine B; assay type: cell-based; details: Homo sapiens, HCT-116; 100 μM compound; 48 hours incubation with drug; Sulforhodamine B staining; read-out: % Inhibition of HCT116 cell growth @ 100 μM
Experimental: [The source words this procedure for another cell line and reports this cell line under the same test.] The following procedure can be found on the Developmental Therapeutics Program NCl/NIH web site at http://dtp.nci.nih.gov/brancehes/btb/ivclsp.html. • 1. Human tumor cell lines of HT29, A549 and MCF7 are grown in DMEM containing 10% fetal bovine serum and 2 mM L-glutamine. Cells are plated in a 96 well plate at a density of 5000 cells per well in 100 μL of growth medium and incubated at 37° C., 5% CO2, for 24 hours prior to the addition of experimental compounds. • 2. Experimental drugs are solubilized in DMSO for a final concentration of 20 mM immediately prior to use. Drugs are further diluted in growth media for a total of nine drug concentrations and a growth control. At the 24 hour time point, one plate of cells is fixed in situ with TCA as a measurement of the cell population at time zero, or the time of drug addition. • 3. The plates are further incubated with drug for an additional 48 hours. • 4. The cells are fixed in situ by gently aspirating off the culture media and then adding 50 μL of ice cold 10% TCA per well and incubated at 4° C. for 60 minutes. The plates are washed with tap water five times and allowed to air dry for 5 minute. • 5. 50 μL of a 0.4% (w/v) Sulforhodamine B solution in 1% (v/v) acetic acid is added per well and incubated for 30 minutes at room temperature. • 6. Following staining, plates are washed five times with 1% acetic acid to remove any unbound dye and then allowed to air dry for 5 minutes. • 7. Stain is solubilized with 100 μL of 10 mM Tris pH 10.5 per well and placed on an orbital rotator for 5 minutes. • 8. Absorbance is read at 570 nm.

Q: Which “% Inhibition of HDAC @ 100 μM” value [1] does the source give for `O=C(NO)c1cnc(N2CCc3[nH]c4ccc(-c5ccc[nH]5)cc4c3C2)nc1` [Example 53, N-hydroxy-2-{8-[1H-pyrrol-2-yl]-1,3,4,5-tetrahydro-2H-pyrido[4,3-b]indol-2-yl}pyrimidine-5-carboxamide] here?
A: 100%

Q: And the inhibition at 100 µM [2]?
A: 96.4%

Q: With `Cc1ccc2[nH]c3c(c2c1Cl)CN(c1ncc(C(=O)NO)cn1)CC3` [Example 54, N-hydroxy-2-(9-chloro-8-methyl-1,3,4,5-tetrahydro-2H-pyrido[4,3-b]indol-2-yl)pyrimidine-5-carboxamide] as the compound, how does the “% Inhibition of HDAC @ 100 μM” value [1] read?
A: 99.5%

Q: What about the inhibition at 100 µM [2] of the same compound?
A: 98.9%

Q: For `O=C(NO)c1cnc(N2CCc3[nH]c4ccc(C(F)(F)F)cc4c3C2)nc1` [Example 55, N-hydroxy-2-(8-trifluoromethyl-1,3,4,5-tetrahydro-2H-pyrido[4,3-b]indol-2-yl)pyrimidine-5-carboxamide], which “% Inhibition of HDAC @ 100 μM” value [1] is on record?
A: 99.3%

Q: And the inhibition at 100 µM [2]?
A: 99.1%

Q: With `Cc1cc2[nH]c3c(c2cc1C)CN(c1ncc(C(=O)NO)cn1)CC3` [Example 56, N-hydroxy-2-(7,8-dimethyl-1,3,4,5-tetrahydro-2H-pyrido[4,3-b]indol-2-yl)pyrimidine-5-carboxamide] as the compound, how does the “% Inhibition of HDAC @ 100 μM” value [1] read?
A: 99.8%

Q: And the inhibition at 100 µM [2]?
A: 99%

Q: With `COc1ccc2[nH]c3c(c2c1)CN(c1ncc(C(=O)NO)cn1)CC3` [Example 57, N-hydroxy-2-(8-methoxy-1,3,4,5-tetrahydro-2H-pyrido[4,3-b]indol-2-yl)pyrimidine-5-carboxamide] as the compound, how does the “% Inhibition of HDAC @ 100 μM” value [1] read?
A: 99.9%

Q: And the inhibition at 100 µM [2]?
A: 98.2%

Q: Which “% Inhibition of HDAC @ 100 μM” value [1] does the source give for `O=C(NO)c1cnc(N2CCc3c(n(CCO)c4ccccc34)C2)nc1` [Example 58, N-hydroxy-2-[9-(2-hydroxyethyl)-1,3,4,9-tetrahydro-2H-b-carbolin-2-yl]pyrimidine-5-carboxamide] here?
A: 97.7%

Q: What about the inhibition at 100 µM [2] of the same compound?
A: 96.3%

Q: Which results are given for `CN1CCCC(n2c3c(c4ccccc42)CCN(c2ncc(C(=O)NO)cn2)C3)C1` (centres unmarked) [Example 59, N-hydroxy-2-[9-(1-methylpiperidin-3-yl)-1,3,4,9-tetrahydro-2H-b-carbolin-2-yl]pyrimidine-5-carboxamide]?
A: % Inhibition of HDAC @ 100 μM [1]: 97.3%; inhibition at 100 µM [2]: 97.5%

Q: `O=C(NO)c1cnc(N2CCc3[nH]c4ccc(-c5cccs5)cc4c3C2)nc1` [Example 60, N-hydroxy-2-{8-[thien-2-yl]-1,3,4,5-tetrahydro-2H-pyrido[4,3-b]indol-2-yl}pyrimidine-5-carboxamide] was tested. Which “% Inhibition of HDAC @ 100 μM” value [1] did it give?
A: 100%

Q: And the inhibition at 100 µM [2]?
A: 99%

Q: For `Cc1cccc2c3c([nH]c12)CN(c1ncc(C(=O)NO)cn1)CC3` [Example 61, N-hydroxy-2-(8-methyl-1,3,4,9-tetrahydro-2H-b-carbolin-2-yl)pyrimidine-5-carboxamide], which “% Inhibition of HDAC @ 100 μM” value [1] is on record?
A: 99.9%

Q: What about the inhibition at 100 µM [2] of the same compound?
A: 98.2%

Q: What does the source list for `O=C(NO)c1cnc(N2CCc3c([nH]c4cc(F)ccc34)C2)nc1` [Example 62, N-hydroxy-2-(7-fluoro-1,3,4,9-tetrahydro-2H-b-carbolin-2-yl)pyrimidine-5-carboxamide]?
A: % Inhibition of HDAC @ 100 μM [1]: 99.9%; inhibition at 100 µM [2]: 96.2%

Q: With `O=C(NO)c1cnc(N2CCc3c([nH]c4ccc(F)cc34)C2)nc1` [Example 63, N-hydroxy-2-(6-fluoro-1,3,4,9-tetrahydro-2H-b-carbolin-2-yl)pyrimidine-5-carboxamide] as the compound, how does the “% Inhibition of HDAC @ 100 μM” value [1] read?
A: 99.8%

Q: And the inhibition at 100 µM [2]?
A: 98.9%

Q: Which “% Inhibition of HDAC @ 100 μM” value [1] does the source give for `O=C(NO)c1cnc(N2CCc3c([nH]c4ccc(OCc5ccccc5)cc34)C2)nc1` [Example 64, N-hydroxy-2-(6-benzyloxy-1,3,4,9-tetrahydro-2H-b-carbolin-2-yl)pyrimidine-5-carboxamide] here?
A: 99.9%

Q: What about the inhibition at 100 µM [2] of the same compound?
A: 98.7%

Q: What does the source list for `Cc1ccc2c3c([nH]c2c1)CN(c1ncc(C(=O)NO)cn1)CC3` [Example 65, N-hydroxy-2-(7-methyl-1,3,4,9-tetrahydro-2H-b-carbolin-2-yl)pyrimidine-5-carboxamide]?
A: % Inhibition of HDAC @ 100 μM [1]: 99.8%; inhibition at 100 µM [2]: 98.4%

Reference: patent US7772245B2, “Inhibitors of histone deacetylase” (Miikana Therapeutics, Inc., priority 2005, dated 2010)
